{"source": "patent US20170231949A1", "about": "“CELL REPAIR AGENT AND DISINFECTION SYSTEM” (priority 2014, published 2017)", "assay_type_in_all_cases": "cell-based", "key": {"[1]": {"test_system": "mouse fibroblasts in growth phase", "experiment": "Tests 4, 6, 7, 8: post-treatment after acidic electrolyzed water, degree of cell proliferation by MTT method", "details": "24 hours culture", "description": "(§1) Similarly to Test 1, mouse fibroblasts in growth phase were treated with four-fold-diluted acidic electrolyzed water and undiluted acidic electrolyzed water for 30 seconds. After washing with phosphate-buffered saline, 100 μl of 140 mM DMSO or 1 mg/ml proanthocyanidin prepared with serum-free DMEM was added to each well, and then cells were cultured for 30 minutes under conditions of 37° C. and 5% CO2. After washing with PBS, fresh medium was added, and then the degree of cell proliferation after 24 hours of culture under conditions of 37° C. and 5% CO2 was determined by the MTT method. In addition, a significant difference between groups was tested by Tukey-Krammer's multiple comparison test (multiple comparative analysis).\nas §1, with “4,” for “1,”, “PBS,” for “phosphate-buffered saline,”, “of” for “of 140 mM DMSO or”, “(+)-catechin (Tokyo Chemical Industry Co., Ltd.)” for “proanthocyanidin”, “followed by” for “and then cells were cultured for”, “minutes of culture” for “minutes”\nSimilarly to Test 4, mouse fibroblasts in growth phase were treated with undiluted acidic electrolyzed water for 30 seconds. After washing with PBS, 100 μl of 1 mg/ml chlorogenic acid (Sigma-Aldrich), caffeic acid (Tokyo Chemical Industry Co., Ltd.) or gallic acid (Tokyo Chemical Industry Co., Ltd.) prepared with serum-free DMEM was added to each well, followed by 5 or 30 minutes of culture under conditions of 37° C. and 5% CO2. After washing with PBS, fresh medium was added, and then the degree of cell proliferation after 24 hours of culture under conditions of 37° C., 5% CO2 was determined by the MTT method. In addition, a significant difference between groups was tested by Tukey-Krammer's multiple comparison test (multiple comparative analysis).\nSimilarly to Test 4, mouse fibroblasts in growth phase were treated with undiluted acidic electrolyzed water for 30 seconds. After washing with PBS, 100 μl of 1 mg/ml proanthocyanidin prepared with serum-free DMEM was added to each well, and the resultants were each left to sit at room temperature for 1 minute and 5 minutes. After washing with PBS, fresh medium was added, and then the degree of cell proliferation after 24 hours of culture under conditions of 37° C. and 5% CO2 was determined by the MTT method. In addition, a significant difference between groups was tested by Tukey-Krammer's multiple comparison test (multiple comparative analysis)."}, "[2]": {"test_system": "mouse fibroblasts in stationary phase", "experiment": "Test 3: impact of DMSO and proanthocyanidin on intracellular ROS levels increased by acidic electrolyzed water", "details": "four-fold-diluted or undiluted AEW 30 seconds, then 140 mM DMSO or 1 mg/ml proanthocyanidin, 1 hour", "description": "Specifically, 100 μl of 1 mM 2',7'-dichlorodihydrofluorescin Diacetate (DCFH-DA) dissolved in serum-free medium (DMEM only) was added to each well, and then cells were cultured for 1 hour under conditions of 37° C. and 5% CO2. After culture, washing with phosphate-buffered saline was performed, 100 μl of 2× Cell Lysis Buffer (Cell Biolabs) and 100 μl of serum-free DMEM were added, and then the resultants were left to stand for 5 minutes. 150 μl of the resultants was transferred from each well to a black 96-well microplate, fluorescence intensities were measured at an excitation wavelength of 450 nm and a fluorescence wavelength of 530 nm using a microplate reader (“FilterMaxTM F5 Multi-Mode Microplate Reader”, Molecular Devices). A standard curve was prepared using 2',7'-dichlorodihydrofluorescein (DCF), and intracellular ROS levels were represented by DCF equivalents (nM). In addition, a significant difference to the average value of each control group (control) was tested by Dunnett's multiple comparison test (multiple comparative analysis). Similarly to Test 2, mouse fibroblasts in stationary phase were treated with four-fold-diluted acidic electrolyzed water and undiluted acidic electrolyzed water for 30 seconds. […] After culture, similarly to Test 2, intracellular ROS levels were determined."}, "[3]": {"test_system": "human gingival fibroblasts in growth phase", "experiment": "Test 5: post-treatment after acidic electrolyzed water, degree of cell proliferation by MTT method", "details": "four-fold-diluted or undiluted AEW 30 seconds, then 140 mM DMSO or 1 mg/ml proanthocyanidin for 30 minutes; 24 hours culture", "description": "A test similar to Test 4 was conducted for human gingival fibroblasts in growth phase. First, human gingival fibroblasts (purchased from Primary Cell Co., Ltd.) were cultured in a 25 cm^2 flask under conditions of 37° C. and 5% CO2, and then a cell suspension was prepared similarly to the case of mouse fibroblasts in medium to a cell density of 2×10^4 cells/ml. 100 μl each of the cell suspension was seeded to each well of a 96-well microplate."}, "[4]": {"details": "undiluted AEW 30 seconds, then 1 mg/ml test substance for 5 or 30 minutes"}}}
{"molecule": "O=C(/C=C/c1ccc(O)c(O)c1)O[C@@H]1C[C@](O)(C(=O)O)C[C@@H](O)[C@H]1O", "note": "[chlorogenic acid]", "values": [{"measurement": "cell proliferation state (degree of cell proliferation, MTT)", "setting": "[1]; [4]", "value": "significantly improved"}]}
{"molecule": "O=C(O)c1cc(O)c(O)c(O)c1", "note": "[gallic acid]", "values": [{"measurement": "cell proliferation state (degree of cell proliferation, MTT)", "setting": "[1]; [4]", "value": "significantly improved"}]}
{"molecule": "Oc1cc(O)c2c(c1)O[C@H](c1ccc(O)c(O)c1)[C@@H](O)C2", "note": "[(+)-catechin]", "values": [{"measurement": "cell proliferation state (degree of cell proliferation, MTT)", "setting": "[1]; four-fold-diluted and undiluted AEW 30 seconds, then 1 mg/ml (+)-catechin for 30 minutes", "value": "significantly improved"}]}
{"molecule": "O=C(O)/C=C/c1ccc(O)c(O)c1", "note": "[caffeic acid]", "values": [{"measurement": "cell proliferation state (degree of cell proliferation, MTT)", "setting": "[1]; [4]", "value": "significantly improved"}]}
{"molecule": "C[S+](C)[O-]", "note": "[DMSO, dimethyl sulfoxide]", "values": [{"measurement": "cell proliferation state (degree of cell proliferation, MTT)", "setting": "[1]; four-fold-diluted and undiluted AEW 30 seconds, then 140 mM DMSO or 1 mg/ml proanthocyanidin for 30 minutes", "value": "no change"}, {"measurement": "ROS level increased by acidic electrolyzed water", "setting": "[2]", "value": "significantly decreased"}, {"measurement": "cell proliferation state (degree of cell proliferation, MTT)", "setting": "[3]", "value": "no change"}]}
